Reference: patent US20250186437A1, “CARBOLINE COMPOUNDS AND USE THEREOF” (PTC Therapeutics, Inc., priority 2021, published 2025)

system: MOLM-13 cells; assay: MOLM-13 Cell Proliferation Assay (indicator of DHODH inhibition); assay type: cell-based; settings: Homo sapiens, 72 Hours of culture, CellTiter-Glo, no uridine
Method: The following assay was conducted to measure proliferation of MOLM-13 cells in the presence of each compound studied. This assay was included as an indicator of DHODH inhibition, as growth of MOLM-13 cells is known to depend on synthesis of pyrimidines using the de novo pathway, which can be blocked by inhibition of DHODH. • 1. MOLM-13 cells were cultured in RPMI 1640 medium+10% Fetal Bovine Serum (FBS). Only low passage cells (<20) were used for the compound tests • 2. On day 1, Log-phase growing Molm-13 Cells were counted and diluted to 10^5 cells/mL in RPMI 1640 medium+10% FBS • 3. 100 μL of diluted MOLM-13 cells in 96 well white plates were seeded, for a final density of 10^4 cells/well. • 4. 0.5 μL of pre-diluted 200× compounds or DMSO control was added to each well. The final DMSO concentration was 0.5%. • 5. After 72 Hours of culture at 37° C., 5% CO2, the plates were taken out and cooled to RT, then 50 μL CellTiter-Glo® (Promega) was added, and the composition was mixed at RT for 10 minutes. • 6. The plates were then read by ViewLux (Speed-fast, Gain-High, Bining-1X, 5 seconds).

SMILES	IC50
Fc1ccc(C2c3[nH]c4ccc(Cl)cc4c3CCN2c2ncc(Cl)cn2)cc1 (centres unmarked) [Compound 1, 6-chloro-2-(5-chloropyrimidin-2-yl)-1-(4-fluorophenyl)-2,3,4,9-tetrahydro-1H-pyrido[3,4-b]indole]	31.8 nM
Cc1cnc(N2CCc3c([nH]c4ccc(Cl)cc34)C2c2ccc(F)cc2)nc1 (centres unmarked) [Compound 2, 6-chloro-1-(4-fluorophenyl)-2-(5-methylpyrimidin-2-yl)-2,3,4,9-tetrahydro-1H-pyrido[3,4-b]indole]	60.6 nM
Cc1ccc(C2c3[nH]c4ccc(Cl)cc4c3CCN2c2nc(Cl)cc(Cl)n2)cc1 (centres unmarked) [Compound 7, 6-chloro-2-(4,6-dichloropyrimidin-2-yl)-1-(4-methylphenyl)-2,3,4,9-tetrahydro-1H-pyrido[3,4-b]indole]	0.6 nM
Cc1ccc(C2c3[nH]c4ccc(Cl)cc4c3CCN2c2nccc(Cl)n2)cc1 (centres unmarked) [Compound 10, 6-chloro-2-(4-chloropyrimidin-2-yl)-1-(4-methylphenyl)-2,3,4,9-tetrahydro-1H-pyrido[3,4-b]indole]	4.1 nM
Fc1ccc(C2c3[nH]c4ccc(Cl)cc4c3CCN2c2nccc(Cl)n2)cc1 (centres unmarked) [Compound 13, 6-chloro-2-(4-chloropyrimidin-2-yl)-1-(4-fluorophenyl)-2,3,4,9-tetrahydro-1H-pyrido[3,4-b]indole]	12.4 nM
Fc1ccc(C2c3[nH]c4cc(F)c(Cl)cc4c3CCN2c2nccc(Cl)n2)cc1 (centres unmarked) [Compound 15, 6-chloro-2-(4-chloropyrimidin-2-yl)-7-fluoro-1-(4-fluorophenyl)-2,3,4,9-tetrahydro-1H-pyrido[3,4-b]indole]	32.6 nM
Cc1ccc(C2c3[nH]c4cc(F)c(Cl)cc4c3CCN2c2nc(Cl)cc(Cl)n2)cc1 (centres unmarked) [Compound 16, 6-chloro-2-(4,6-dichloropyrimidin-2-yl)-7-fluoro-1-(4-methylphenyl)-2,3,4,9-tetrahydro-1H-pyrido[3,4-b]indole]	1.8 nM
N#Cc1ccc(C2c3[nH]c4cc(F)c(Cl)cc4c3CCN2c2nccc(Cl)n2)cc1 (centres unmarked) [Compound 18, 4-[6-chloro-2-(4-chloropyrimidin-2-yl)-7-fluoro-2,3,4,9-tetrahydro-1H-pyrido[3,4-b]indol-1-yl]benzonitrile]	13.5 nM
Cc1cc(C)nc(N2CCc3c([nH]c4cc(F)c(Cl)cc34)C2c2ccc(F)cc2)n1 (centres unmarked) [Compound 19, 6-chloro-2-(4,6-dimethylpyrimidin-2-yl)-7-fluoro-1-(4-fluorophenyl)-2,3,4,9-tetrahydro-1H-pyrido[3,4-b]indole]	26.3 nM
Cc1ccc(C2c3[nH]c4ccc(Cl)c(F)c4c3CCN2c2ncc(F)cn2)cc1 (centres unmarked) [Compound 20, 6-chloro-5-fluoro-2-(5-fluoropyrimidin-2-yl)-1-(4-methylphenyl)-2,3,4,9-tetrahydro-1H-pyrido[3,4-b]indole]	12.9 nM
Cc1ccc(C2c3[nH]c4ccc(Cl)c(F)c4c3CCN2c2ncc(Cl)cn2)cc1 (centres unmarked) [Compound 21, 6-chloro-2-(5-chloropyrimidin-2-yl)-5-fluoro-1-(4-methylphenyl)-2,3,4,9-tetrahydro-1H-pyrido[3,4-b]indole]	9.8 nM
CC(C)c1ccnc(N2CCc3c([nH]c4cc(F)c(Cl)cc34)C2c2ccc(F)cc2)n1 (centres unmarked) [Compound 23, 6-chloro-7-fluoro-1-(4-fluorophenyl)-2-[4-(propan-2-yl)pyrimidin-2-yl]-2,3,4,9-tetrahydro-1H-pyrido[3,4-b]indole]	45.4 nM
Fc1ccc(C2c3[nH]c4cc(F)c(Cl)cc4c3CCN2c2nccc(C(F)(F)F)n2)cc1 (centres unmarked) [Compound 24, 6-chloro-7-fluoro-1-(4-fluorophenyl)-2-[4-(trifluoromethyl)pyrimidin-2-yl]-2,3,4,9-tetrahydro-1H-pyrido[3,4-b]indole]	17.6 nM
N#Cc1ccnc(N2CCc3c([nH]c4cc(F)c(Cl)cc34)C2c2ccc(F)cc2)n1 (centres unmarked) [Compound 25, 2-[6-chloro-7-fluoro-1-(4-fluorophenyl)-1,3,4,9-tetrahydro-2H-pyrido[3,4-b]indol-2-yl]pyrimidine-4-carbonitrile]	51.4 nM
Fc1cnc(N2CCc3c([nH]c4ccc(Cl)c(F)c34)C2c2ccc(Cl)cc2)nc1 (centres unmarked) [Compound 26, 6-chloro-1-(4-chlorophenyl)-5-fluoro-2-(5-fluoropyrimidin-2-yl)-2,3,4,9-tetrahydro-1H-pyrido[3,4-b]indole]	18.9 nM
Fc1c(Cl)ccc2[nH]c3c(c12)CCN(c1ncc(Cl)cn1)C3c1ccc(Cl)cc1 (centres unmarked) [Compound 27, 6-chloro-1-(4-chlorophenyl)-2-(5-chloropyrimidin-2-yl)-5-fluoro-2,3,4,9-tetrahydro-1H-pyrido[3,4-b]indole]	17.6 nM
Cc1ccc(C2c3[nH]c4ccc(Cl)c(F)c4c3CCN2c2nccc(Cl)n2)cc1 (centres unmarked) [Compound 28, 6-chloro-2-(4-chloropyrimidin-2-yl)-5-fluoro-1-(4-methylphenyl)-2,3,4,9-tetrahydro-1H-pyrido[3,4-b]indole]	4.4 nM
N#Cc1ccc(C2c3[nH]c4c(F)cc(Cl)cc4c3CCN2c2ncc(F)cn2)cc1 (centres unmarked) [Compound 33, 4-[6-chloro-8-fluoro-2-(5-fluoropyrimidin-2-yl)-2,3,4,9-tetrahydro-1H-pyrido[3,4-b]indol-1-yl]benzonitrile]	121 nM

Continued, values first:

IC50	SMILES
29.6 nM	Fc1ccc(C2c3[nH]c4ccc(Cl)cc4c3CCN2c2ncc(F)cn2)cc1 (centres unmarked) [Compound 3, 6-chloro-1-(4-fluorophenyl)-2-(5-fluoropyrimidin-2-yl)-2,3,4,9-tetrahydro-1H-pyrido[3,4-b]indole]
59.7 nM	Fc1ccc(C2c3[nH]c4cc(F)c(Cl)cc4c3CCN2c2ncc(Cl)cn2)cc1 (centres unmarked) [Compound 4, 6-chloro-2-(5-chloropyrimidin-2-yl)-7-fluoro-1-(4-fluorophenyl)-2,3,4,9-tetrahydro-1H-pyrido[3,4-b]indole]
67.9 nM	Fc1ccc(C2c3[nH]c4cc(F)c(Cl)cc4c3CCN2c2ncc(F)cn2)cc1 (centres unmarked) [Compound 5, 6-chloro-7-fluoro-1-(4-fluorophenyl)-2-(5-fluoropyrimidin-2-yl)-2,3,4,9-tetrahydro-1H-pyrido[3,4-b]indole]
37.6 nM	Cc1ccc(C2c3[nH]c4cc(F)c(Cl)cc4c3CCN2c2ncc(F)cn2)cc1 (centres unmarked) [Compound 6, 6-chloro-7-fluoro-2-(5-fluoropyrimidin-2-yl)-1-(4-methylphenyl)-2,3,4,9-tetrahydro-1H-pyrido[3,4-b]indole]
34.8 nM	COc1ccc(C2c3[nH]c4cc(F)c(Cl)cc4c3CCN2c2ncc(F)cn2)cn1 (centres unmarked) [Compound 8, 6-chloro-7-fluoro-2-(5-fluoropyrimidin-2-yl)-1-(6-methoxypyridin-3-yl)-2,3,4,9-tetrahydro-1H-pyrido[3,4-b]indole]
35.9 nM	Cc1ccnc(N2CCc3c([nH]c4cc(F)c(Cl)cc34)C2c2ccc(F)cc2)n1 (centres unmarked) [Compound 9, 6-chloro-7-fluoro-1-(4-fluorophenyl)-2-(4-methylpyrimidin-2-yl)-2,3,4,9-tetrahydro-1H-pyrido[3,4-b]indole]
35.4 nM	Fc1cnc(N2CCc3c([nH]c4cc(F)c(Cl)cc34)C2c2ccc(Cl)cc2)nc1 (centres unmarked) [Compound 11, 6-chloro-1-(4-chlorophenyl)-7-fluoro-2-(5-fluoropyrimidin-2-yl)-2,3,4,9-tetrahydro-1H-pyrido[3,4-b]indole]
35.8 nM	Fc1cnc(N2CCc3c([nH]c4cc(F)c(Cl)cc34)C2c2ccc(F)cc2F)nc1 (centres unmarked) [Compound 12, 6-chloro-1-(2,4-difluorophenyl)-7-fluoro-2-(5-fluoropyrimidin-2-yl)-2,3,4,9-tetrahydro-1H-pyrido[3,4-b]indole]
30.2 nM	CN(C)c1ncc(C2c3[nH]c4cc(F)c(Cl)cc4c3CCN2c2ncc(F)cn2)cn1 (centres unmarked) [Compound 14, 5-[6-chloro-7-fluoro-2-(5-fluoropyrimidin-2-yl)-2,3,4,9-tetrahydro-1H-pyrido[3,4-b]indol-1-yl]-N,N-dimethylpyrimidin-2-amine]
57.8 nM	CCc1ccnc(N2CCc3c([nH]c4cc(F)c(Cl)cc34)C2c2ccc(F)cc2)n1 (centres unmarked) [Compound 22, 6-chloro-2-(4-ethylpyrimidin-2-yl)-7-fluoro-1-(4-fluorophenyl)-2,3,4,9-tetrahydro-1H-pyrido[3,4-b]indole]
39.1 nM	Fc1cc2[nH]c3c(c2cc1Cl)CCN(c1ncc(Cl)cn1)C3c1ccc(Cl)cc1 (centres unmarked) [Compound 29, 6-chloro-1-(4-chlorophenyl)-2-(5-chloropyrimidin-2-yl)-7-fluoro-2,3,4,9-tetrahydro-1H-pyrido[3,4-b]indole]
24.1 nM	Fc1cnc(N2CCc3c([nH]c4cc(F)c(Cl)cc34)C2c2ccc(C3CC3)cc2)nc1 (centres unmarked) [Compound 31, 6-chloro-1-(4-cyclopropylphenyl)-7-fluoro-2-(5-fluoropyrimidin-2-yl)-2,3,4,9-tetrahydro-1H-pyrido[3,4-b]indole]
49.2 nM	N#Cc1ccc(C2c3[nH]c4cc(F)c(Cl)cc4c3CCN2c2ncc(F)cn2)cc1 (centres unmarked) [Compound 32, 4-[6-chloro-7-fluoro-2-(5-fluoropyrimidin-2-yl)-2,3,4,9-tetrahydro-1H-pyrido[3,4-b]indol-1-yl]benzonitrile]
32.3 nM	CN(C)c1ccc(C2c3[nH]c4cc(F)c(Cl)cc4c3CCN2c2ncc(F)cn2)cn1 (centres unmarked) [Compound 34, 5-[6-chloro-7-fluoro-2-(5-fluoropyrimidin-2-yl)-2,3,4,9-tetrahydro-1H-pyrido[3,4-b]indol-1-yl]-N,N-dimethylpyridin-2-amine]
